Earlier results, collected in publication PMC10145264, “Synthesis and Biological Properties of EGFR-Targeted Photosensitizer Based on Cationic Porphyrin” (Pharmaceutics, 2023).

What was measured:
[1] = design: method as in PMID 24063545; conditions: standard value
[2] = design: method as in doi:10.1016/j.chemphys.2006.07.040, doi:10.1007/BF03356111, doi:10.1016/j.jphotochemrev.2020.100401; conditions: standard value

singlet oxygen quantum yield (ΦΔ) [1]: 0.74
fluorescence quantum yield (ΦF) [2]: 0.033
SMILES: C1=Cc2nc1c(-c1ccccc1)c1ccc([n-]1)c(-c1ccccc1)c1nc(c(-c3ccccc3)c3ccc([n-]3)c2-c2ccccc2)C=C1.[Zn+2] [ZnTPP, zinc tetraphenylporphyrin]
